# Source: ChEMBL document CHEMBL5505983, “Design, synthesis, and molecular modeling studies of novel 2-quinolone-1,2,3-triazole-α-aminophosphonates hybrids as dual antiviral and antibacterial agents” (Eur J Med Chem, 2024)
# Tests used:
# Staphylococcus aureus [1] = assay: Antibacterial activity against Staphylococcus aureus CIP 54127 assessed as reduction in bacterial growth by micro-broth dilution method; type: functional
# Yellow fever virus = assay: Antiviral activity against Yellow fever virus infected in human Huh-7 cells assessed as inhibition of cytopathic effect by microscopy based analysis; type: functional, organism-based
# [2] = Cytotoxicity against human HeLa-RH cells; type: toxicity, cell-based
# Enterovirus A71 = assay: Antiviral activity against human EV71 infected in human RD cells assessed as inhibition of cytopathic effect by microscopy based analysis; type: functional, organism-based; conditions: Enterovirus A
# Human rhinovirus sp. [3] = assay: Antiviral activity against Human rhinovirus B14 infected in human HeLa-RH cells assessed as inhibition of cytopathic effect by microscopy based analysis; type: functional, organism-based
# Enterococcus faecalis [4] = assay: Antibacterial activity against Enterococcus faecalis assessed as reduction in bacterial growth by micro-broth dilution method; type: functional
# Enterococcus faecalis [5] = assay: Bactericidal activity against Enterococcus faecalis; type: functional
# Staphylococcus aureus [6] = assay: Ratio of MBC to MIC for Staphylococcus aureus CIP 54127; type: functional
# Pseudomonas aeruginosa [7] = assay: Bactericidal activity against Pseudomonas aeruginosa CIP A22; type: functional
# Pseudomonas aeruginosa [8] = assay: Ratio of MBC to MIC for Pseudomonas aeruginosa CIP A22; type: functional
# [9] = Cytotoxicity against African green monkey Vero E6 cells; type: toxicity, cell-based, Vero C1008; conditions: chlorocebus sabaeus
# [10] = Cytotoxicity against African green monkey Vero A cells; type: toxicity, cell-based; conditions: chlorocebus sabaeus
# Zika virus = assay: Antiviral activity against Zika virus infected in african green monkey Vero E6 cells assessed as inhibition of cytopathic effect by microscopy based analysis; type: functional, organism-based; conditions: Vero C1008
# [11] = Selectivity index, ratio of CC50 for human RD cells to IC50 for human EV71 infected in human RD cells; type: toxicity, cell-based; conditions: read-out: Ratio CC50/IC50
# Chikungunya virus = assay: Antiviral activity against CHIKV infected in African green monkey Vero A cells assessed as inhibition of cytopathic effect by microscopy based analysis; type: functional, organism-based
# [12] = Cytotoxicity against human Huh-7 cells; type: toxicity, cell-based
# Escherichia coli [13] = assay: Ratio of MBC to MIC for Escherichia coli CIP 53154; type: functional
# Staphylococcus aureus [14] = assay: Bactericidal activity against Staphylococcus aureus CIP 54127; type: functional
# [15] = Cytotoxicity against human RD cells; type: toxicity, cell-based
# Human rhinovirus sp. [16] = assay: Antiviral activity against Human rhinovirus A2 infected in human HeLa-RH cells assessed as inhibition of cytopathic effect by microscopy based analysis; type: functional, organism-based
# Pseudomonas aeruginosa [17] = assay: Antibacterial activity against Pseudomonas aeruginosa CIP A22 assessed as reduction in bacterial growth by micro-broth dilution method; type: functional
# Escherichia coli [18] = assay: Bactericidal activity against Escherichia coli CIP 53154; type: functional
# Enterococcus faecalis [19] = assay: Ratio of MBC to MIC for Enterococcus faecalis; type: functional
# Escherichia coli [20] = assay: Antibacterial activity against Escherichia coli CIP 53154 assessed as reduction in bacterial growth by micro-broth dilution method; type: functional
# [21] = Selectivity index, ratio of CC50 for human HeLa-RH cells to IC50 for Human rhinovirus A2 infected in human HeLa-RH cells; type: toxicity, cell-based; conditions: read-out: Ratio CC50/IC50
# [22] = Selectivity index, ratio of CC50 for human HeLa-RH cells to IC50 for Human rhinovirus B14 infected in human HeLa-RH cells; type: toxicity, cell-based; conditions: read-out: Ratio CC50/IC50
# [23] = Selectivity index, ratio of CC50 for African green monkey Vero A cells to IC50 for CHIKV infected in African green monkey Vero A cells; type: toxicity; conditions: read-out: Ratio CC50/IC50
# SARS-CoV-2 = assay: Antiviral activity against SARS-CoV-2 HCoV-19/Egypt/NRC-03/2020 infected in African green monkey Vero E6 cells assessed as inhibition of virus induced cytopathic effect pre-infected with virus for 1 hr followed by compound addition and measured after 72 hrs by crystal violet staining based analysis; type: functional, organism-based; conditions: Severe acute respiratory syndrome coronavirus 2, HCoV-19/Egypt/NRC-03/2020, Vero C1008
# [24] = Selectivity index, ratio of CC50 for human Huh-7 cells to IC50 for Yellow fever virus infected in human Huh-7 cells; type: toxicity, cell-based; conditions: read-out: Ratio CC50/IC50
# [25] = Selectivity index, ratio of CC50 for African green monkey Vero E6 cells to IC50 for Zika virus infected in african green monkey Vero E6 cells; type: toxicity; conditions: read-out: Ratio CC50/IC50
# Staphylococcus aureus [26] = assay: Antibacterial activity against Staphylococcus aureus; type: functional
# Pseudomonas aeruginosa [27] = assay: Antibacterial activity against Pseudomonas aeruginosa; type: functional
Compound,MIC (Staphylococcus aureus [1]) [µM],IC50 (Yellow fever virus) [µM],CC50 [2] [µM],IC50 (Enterovirus A71) [µM],IC50 (Human rhinovirus sp. [3]) [µM],MIC (Enterococcus faecalis [4]) [µM],MBC (Enterococcus faecalis [5]) [µM],Ratio (Staphylococcus aureus [6]),MBC (Pseudomonas aeruginosa [7]) [µM],Ratio (Pseudomonas aeruginosa [8]),CC50 [9] [µM],CC50 [10] [µM],IC50 (Zika virus) [µM],IC50 (Chikungunya virus) [µM],CC50 [12] [µM],Ratio (Escherichia coli [13]),MBC (Staphylococcus aureus [14]) [µM],CC50 [15] [µM],IC50 (Human rhinovirus sp. [16]) [µM],MIC (Pseudomonas aeruginosa [17]) [µM],also measured
Cc1cc(=O)n(Cc2cn(Cc3ccc(O)c(C=O)c3)nn2)c2ccc(F)cc12,3190,> 100,14.5,29.9,> 100,200,400,1,3190,2.01,55,> 100,> 100,> 100,27.8,1,3190,43,> 1.23,3190,selectivity ratio [11]: 1.44; MBC (Escherichia coli [18]): 6370 µM; Ratio (Enterococcus faecalis [19]): 2; MIC (Escherichia coli [20]): 6370 µM
Cc1cc(CCCOc2c(C)cc(-c3noc(C(F)(F)F)n3)cc2C)on1 [PLECONARIL],–,–,> 100,–,0.2,–,–,–,–,–,–,–,–,–,–,–,–,–,0.44,–,selectivity ratio [21]: > 227; selectivity ratio [22]: > 500
CCOP(=O)(OCC)C(Nc1ccc(I)cc1)c1cc(Cn2cc(Cn3c(=O)cc(C)c4cc(F)ccc43)nn2)ccc1O (stereo unspecified),110,> 33.3,> 33.3,> 100,10.9,50,50,2,1710,1,> 100,> 100,> 100,33,12.1,1.99,220,> 100,> 33.3,1710,selectivity ratio [22]: > 3.06; selectivity ratio [23]: > 3.03; MBC (Escherichia coli [18]): 1710 µM; Ratio (Enterococcus faecalis [19]): 1; MIC (Escherichia coli [20]): 860 µM
Fc1ccc2nc(C(F)(F)F)cc(OCc3cn(-c4ccccc4Cl)nn3)c2c1,–,–,–,–,–,–,–,–,–,–,–,–,–,–,–,–,–,–,–,–,IC50 (SARS-CoV-2): 60 µM
CCOP(=O)(OCC)C(Nc1ccccc1)c1cc(Cn2cc(Cn3c(=O)cc(C)c4cc(Br)ccc43)nn2)ccc1O (stereo unspecified),240,> 100,> 100,> 100,41.1,60,120,1,3750,1.99,> 100,> 100,> 100,40,52,1.98,240,> 100,> 1.23,3750,selectivity ratio [22]: > 2.43; selectivity ratio [23]: > 2.5; MBC (Escherichia coli [18]): 1880 µM; Ratio (Enterococcus faecalis [19]): 2; MIC (Escherichia coli [20]): 950 µM
Cc1cc(=O)n(Cc2cn(Cc3ccc(O)c(C=O)c3)nn2)c2ccc(Br)cc12,11000,> 100,8.61,33.3,> 100,340,340,1,2760,1,52.7,> 100,> 100,98.5,29.6,2,11000,44.1,> 1.23,2760,selectivity ratio [11]: 1.33; selectivity ratio [23]: > 1.02; MBC (Escherichia coli [18]): 11000 µM; Ratio (Enterococcus faecalis [19]): 1; MIC (Escherichia coli [20]): 5520 µM
CCOP(=O)(OCC)C(Nc1ccc(C)cc1)c1cc(Cn2cc(Cn3c(=O)cc(C)c4cc(Br)ccc43)nn2)ccc1O (stereo unspecified),460,> 100,29.1,> 100,10.7,60,60,1,1840,4,> 33.3,> 100,> 100,56.1,20,2.02,460,> 100,> 0.41,1840,selectivity ratio [22]: 2.73; selectivity ratio [23]: > 1.78; MBC (Escherichia coli [18]): 930 µM; Ratio (Enterococcus faecalis [19]): 1; MIC (Escherichia coli [20]): 460 µM
C[C@@]1(O)[C@H](O)[C@@H](CO)O[C@H]1n1ccc2c(N)ncnc21 [BETA-2'-C-METHYL-7-DEAZA-ADENOSINE],–,16.3,–,–,–,–,–,–,–,–,> 100,–,20,–,50,–,–,–,–,–,selectivity ratio [24]: 3.07; selectivity ratio [25]: > 5
COC(=O)C(NC(=O)c1ccccc1)n1cc(Cn2c(=O)cc(C(=O)N[C@H](C)C(=O)OC)c3ccccc32)nn1 (stereo partly specified),–,–,–,–,–,–,–,–,–,–,–,–,–,–,–,–,–,–,–,–,MIC (Staphylococcus aureus [26]): 39 µg/mL; MIC (Pseudomonas aeruginosa [27]): 78 µg/mL
CCOC(=O)/C=C/[C@H](C[C@@H]1CCNC1=O)NC(=O)[C@@H](CC(=O)[C@@H](NC(=O)c1cc(C)on1)C(C)C)Cc1ccc(F)cc1 [RUPINTRIVIR],–,–,–,1.87,–,–,–,–,–,–,–,–,–,–,–,–,–,> 100,–,–,selectivity ratio [11]: > 53.5
CCOP(=O)(OCC)C(Nc1ccccc1Cl)c1cc(Cn2cc(Cn3c(=O)cc(C)c4cc(Br)ccc43)nn2)ccc1O (stereo unspecified),440,9.91,9.88,> 100,> 33.3,60,60,1,1780,4.05,> 100,7.58,71.5,> 100,20,1,440,> 100,> 0.41,1780,selectivity ratio [24]: 2.02; selectivity ratio [25]: > 1.4; MBC (Escherichia coli [18]): 440 µM; Ratio (Enterococcus faecalis [19]): 1; MIC (Escherichia coli [20]): 440 µM
